{
  "source": "paper PMC13100289",
  "about": "(The Journal of Biological Chemistry, 2026)",
  "biological_target": "T1, Neutral endopeptidase (neprilysin) (Homo sapiens, UniProt P08473)",
  "T1 construct": "purchased; host or cells: CHO cells",
  "T1 sequence (P08473 whole entry)": "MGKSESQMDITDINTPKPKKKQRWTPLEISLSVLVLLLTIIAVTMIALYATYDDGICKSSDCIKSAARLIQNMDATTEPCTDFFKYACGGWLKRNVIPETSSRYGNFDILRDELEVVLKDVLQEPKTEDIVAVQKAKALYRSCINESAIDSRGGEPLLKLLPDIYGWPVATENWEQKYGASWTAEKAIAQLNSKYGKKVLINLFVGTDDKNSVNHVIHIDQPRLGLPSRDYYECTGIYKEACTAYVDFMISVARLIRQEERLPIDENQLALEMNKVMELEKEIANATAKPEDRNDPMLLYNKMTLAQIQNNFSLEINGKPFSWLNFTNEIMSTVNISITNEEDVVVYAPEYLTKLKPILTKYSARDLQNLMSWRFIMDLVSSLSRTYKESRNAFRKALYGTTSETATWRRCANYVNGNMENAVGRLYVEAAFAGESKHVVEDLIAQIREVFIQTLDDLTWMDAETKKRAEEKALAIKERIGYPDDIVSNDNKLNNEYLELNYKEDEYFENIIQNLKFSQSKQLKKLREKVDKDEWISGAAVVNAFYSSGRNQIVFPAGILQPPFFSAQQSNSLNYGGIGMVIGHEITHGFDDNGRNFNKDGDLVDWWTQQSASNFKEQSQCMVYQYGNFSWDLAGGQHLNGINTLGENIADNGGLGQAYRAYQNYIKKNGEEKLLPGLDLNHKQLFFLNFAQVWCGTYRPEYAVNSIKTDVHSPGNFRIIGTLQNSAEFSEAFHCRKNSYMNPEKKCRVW",
  "experiment": "Metalloprotease selectivity panel (Eurofins Panlabs): neprilysin",
  "assay_type": "biochemical",
  "conditions": "assay validation, read-out: IC50 of reference inhibitor",
  "text": "Supplementary Table S1. […] Reference compounds were used to validate the assay for inhibition.",
  "data": [
    {"smiles": "CC(C)C[C@H](NP(=O)(O)O[C@@H]1O[C@@H](C)[C@H](O)[C@@H](O)[C@H]1O)C(=O)N[C@@H](Cc1c[nH]c2ccccc12)C(=O)O", "note": "[Phosphoramidon]", "values": [
      {"measurement": "IC50", "result": 1.99, "unit": "nM"}
    ]}
  ]
}
